Consider 1 compound from ChEMBL document CHEMBL5321287, “Discovery, Synthesis, and Evaluation of Novel Dual Inhibitors of a Vascular Endothelial Growth Factor Receptor and Poly(ADP-Ribose) Polymerase for BRCA Wild-Type Breast Cancer Therapy” (J Med Chem, 2023).

For series [1], the target named is Vascular endothelial growth factor receptor 1 (Homo sapiens, UniProt P17948). Description: Inhibition of VEGFR1 (unknown origin) by Z'-Lyte kinase assay.
The target in series [2] is Vascular endothelial growth factor receptor 3 (Homo sapiens, UniProt P35916). In words: Inhibition of VEGFR3 (unknown origin) by Z'-Lyte kinase assay.
For series [3], the target named is Macrophage colony-stimulating factor 1 receptor (Homo sapiens, UniProt P07333). In words: Inhibition of FMS (unknown origin) by Z'-Lyte kinase assay.
Series [4] addresses Serine/threonine-protein kinase 16 (Homo sapiens, UniProt O75716). In words: Inhibition of MPSK1 (unknown origin) by Z'-Lyte kinase assay.
Series [5] addresses Mitogen-activated protein kinase kinase kinase 11 (Homo sapiens, UniProt Q16584). In words: Inhibition of MLK3 (unknown origin) by Z'-Lyte kinase assay.
The target of series [6] is T1, Serine/threonine-protein kinase TAO2 (Homo sapiens, UniProt Q9UL54).
T1 sequence (Q9UL54 whole entry): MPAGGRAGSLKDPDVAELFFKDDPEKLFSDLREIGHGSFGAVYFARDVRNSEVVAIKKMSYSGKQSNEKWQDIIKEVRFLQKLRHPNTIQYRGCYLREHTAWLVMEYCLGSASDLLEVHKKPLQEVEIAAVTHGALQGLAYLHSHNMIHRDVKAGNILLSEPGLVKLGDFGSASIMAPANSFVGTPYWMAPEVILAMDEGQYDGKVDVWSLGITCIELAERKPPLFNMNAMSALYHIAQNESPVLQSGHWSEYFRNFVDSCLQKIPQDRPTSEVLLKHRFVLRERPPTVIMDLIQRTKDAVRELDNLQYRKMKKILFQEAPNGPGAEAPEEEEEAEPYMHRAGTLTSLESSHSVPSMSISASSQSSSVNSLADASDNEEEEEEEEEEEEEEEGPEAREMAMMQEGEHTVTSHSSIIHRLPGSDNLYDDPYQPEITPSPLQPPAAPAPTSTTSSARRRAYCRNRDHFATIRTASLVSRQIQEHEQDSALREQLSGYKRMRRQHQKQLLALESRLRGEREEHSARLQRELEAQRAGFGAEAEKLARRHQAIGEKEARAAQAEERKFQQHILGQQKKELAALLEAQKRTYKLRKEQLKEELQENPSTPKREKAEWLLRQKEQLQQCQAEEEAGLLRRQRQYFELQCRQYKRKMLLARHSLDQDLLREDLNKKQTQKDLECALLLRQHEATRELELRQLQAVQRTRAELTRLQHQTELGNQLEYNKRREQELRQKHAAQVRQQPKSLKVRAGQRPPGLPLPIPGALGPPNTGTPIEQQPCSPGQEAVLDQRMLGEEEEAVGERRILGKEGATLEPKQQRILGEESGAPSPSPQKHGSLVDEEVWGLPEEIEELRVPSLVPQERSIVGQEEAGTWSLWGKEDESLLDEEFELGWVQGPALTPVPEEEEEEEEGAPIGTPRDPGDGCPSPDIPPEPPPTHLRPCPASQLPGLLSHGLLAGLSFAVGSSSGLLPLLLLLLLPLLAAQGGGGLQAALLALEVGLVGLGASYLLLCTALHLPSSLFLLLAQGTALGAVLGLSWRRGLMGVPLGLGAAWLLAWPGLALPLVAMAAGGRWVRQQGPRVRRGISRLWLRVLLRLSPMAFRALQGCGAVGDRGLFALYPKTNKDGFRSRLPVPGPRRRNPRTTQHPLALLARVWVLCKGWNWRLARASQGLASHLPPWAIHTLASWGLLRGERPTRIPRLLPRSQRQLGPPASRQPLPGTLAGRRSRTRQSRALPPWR
Description: Inhibition of TAO2 (unknown origin) by Z'-Lyte kinase assay.

The target of series [7] is Poly [ADP-ribose] polymerase 2 (Homo sapiens, UniProt Q9UGN5). Description: Inhibition of PARP2 (unknown origin).
Series [8] can be described thus: Half life in Sprague-Dawley rat at 1 mg/kg, iv by LC-MS analysis. Type of series: ADME, organism-based. The conditions noted are these: in vivo.
Series [9] is described as follows: Cmax in Sprague-Dawley rat at 1 mg/kg, iv by LC-MS analysis. Type of series: ADME, organism-based. Also on record: dose 1 mg/kg, route iv. The conditions noted are these: in vivo.
A short description of series [10]: AUC (0 to t) in Sprague-Dawley rat at 1 mg/kg, iv by LC-MS analysis. The format is ADME, organism-based. Further details: dose 1 mg/kg, route iv. The conditions noted are these: in vivo.
Series [11] is described as follows: AUC (0 to infinity) in Sprague-Dawley rat at 1 mg/kg, iv by LC-MS analysis. Type of series: ADME, organism-based. Also on record: dose 1 mg/kg, route iv. The conditions noted are these: in vivo.
Series [12] in a line: Apparent volume of distribution in Sprague-Dawley rat at 1 mg/kg, iv by LC-MS analysis. The format is ADME, organism-based. The conditions noted are these: in vivo, read-out: Vz.
A short description of series [13]: Clearance in Sprague-Dawley rat at 1 mg/kg, iv by LC-MS analysis. Type of series: ADME, organism-based. The conditions noted are these: in vivo.
Series [14] can be described thus: Half life in Sprague-Dawley rat at 10 mg/kg, po via gavage by LC-MS analysis. The conditions noted are these: in vivo. Type of series: ADME, organism-based.
Series [15] can be described thus: Cmax in Sprague-Dawley rat at 10 mg/kg, po via gavage by LC-MS analysis. The format is ADME, organism-based. Also on record: dose 10 mg/kg, route po. The conditions noted are these: in vivo.
Series [16] can be described thus: AUC (0 to t) in Sprague-Dawley rat at 10 mg/kg, po via gavage by LC-MS analysis. The format is ADME, organism-based. Also on record: dose 10 mg/kg, route po. The conditions noted are these: in vivo.
Series [17] in a line: AUC (0 to infinity) in Sprague-Dawley rat at 10 mg/kg, po via gavage by LC-MS analysis. The format is ADME, organism-based. Further details: dose 10 mg/kg, route po. The conditions noted are these: in vivo.
Series [18] can be described thus: Oral bioavailability in Sprague-Dawley rat at 10 mg/kg administered via gavage by LC-MS analysis. The format is ADME, organism-based. The conditions noted are these: in vivo.
Series [19] can be described thus: Toxicity in BALB/c nude mouse xenografted with human MDA-MB-231 cells assessed as change in body weight at 25 to 50 mg/kg, po for 14 days. The format is organism-based. The conditions noted are these: in vivo, 336 h, dose 25-50 mg/kg, time 14 day. (In general: A xenograft is tissue or cells of one species grown in another, often human tumour cells in immunodeficient mice.)

Series [20] in a line: Toxicity in BALB/c nude mouse xenografted with human MDA-MB-231 cells assessed as damage in heart at 25 to 50 mg/kg, po for 14 days. The conditions noted are these: in vivo, 336 h, dose 25-50 mg/kg, time 14 day. The format is organism-based.
Series [21] in a line: Toxicity in BALB/c nude mouse xenografted with human MDA-MB-231 cells assessed as damage in lungs at 25 to 50 mg/kg, po for 14 days. The format is organism-based. The conditions noted are these: in vivo, 336 h, dose 25-50 mg/kg, time 14 day.
Series [22] is described as follows: Toxicity in BALB/c nude mouse xenografted with human MDA-MB-231 cells assessed as damage in spleen at 25 to 50 mg/kg, po for 14 days. The format is organism-based. The conditions noted are these: in vivo, 336 h, dose 25-50 mg/kg, time 14 day.
Series [23] can be described thus: Toxicity in BALB/c nude mouse xenografted with human MDA-MB-231 cells assessed as damage in liver at 25 to 50 mg/kg, po for 14 days. The conditions noted are these: in vivo, 336 h, dose 25-50 mg/kg, time 14 day. The format is organism-based.
Series [24] in a line: Toxicity in BALB/c nude mouse xenografted with human MDA-MB-231 cells assessed as damage in kidney at 25 to 50 mg/kg, po for 14 days. The format is organism-based. The conditions noted are these: in vivo, 336 h, dose 25-50 mg/kg, time 14 day.

Sequence of Serine/threonine-protein kinase 16 (O75716 whole entry): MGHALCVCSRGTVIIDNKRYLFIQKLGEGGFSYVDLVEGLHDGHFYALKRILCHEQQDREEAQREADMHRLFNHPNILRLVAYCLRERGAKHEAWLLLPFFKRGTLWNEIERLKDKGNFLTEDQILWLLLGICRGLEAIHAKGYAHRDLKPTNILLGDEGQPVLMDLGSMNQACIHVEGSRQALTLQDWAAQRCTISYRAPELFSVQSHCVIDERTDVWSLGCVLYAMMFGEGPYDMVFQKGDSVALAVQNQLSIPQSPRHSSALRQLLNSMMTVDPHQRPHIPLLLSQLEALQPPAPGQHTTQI
Sequence of Vascular endothelial growth factor receptor 3 (P35916 whole entry): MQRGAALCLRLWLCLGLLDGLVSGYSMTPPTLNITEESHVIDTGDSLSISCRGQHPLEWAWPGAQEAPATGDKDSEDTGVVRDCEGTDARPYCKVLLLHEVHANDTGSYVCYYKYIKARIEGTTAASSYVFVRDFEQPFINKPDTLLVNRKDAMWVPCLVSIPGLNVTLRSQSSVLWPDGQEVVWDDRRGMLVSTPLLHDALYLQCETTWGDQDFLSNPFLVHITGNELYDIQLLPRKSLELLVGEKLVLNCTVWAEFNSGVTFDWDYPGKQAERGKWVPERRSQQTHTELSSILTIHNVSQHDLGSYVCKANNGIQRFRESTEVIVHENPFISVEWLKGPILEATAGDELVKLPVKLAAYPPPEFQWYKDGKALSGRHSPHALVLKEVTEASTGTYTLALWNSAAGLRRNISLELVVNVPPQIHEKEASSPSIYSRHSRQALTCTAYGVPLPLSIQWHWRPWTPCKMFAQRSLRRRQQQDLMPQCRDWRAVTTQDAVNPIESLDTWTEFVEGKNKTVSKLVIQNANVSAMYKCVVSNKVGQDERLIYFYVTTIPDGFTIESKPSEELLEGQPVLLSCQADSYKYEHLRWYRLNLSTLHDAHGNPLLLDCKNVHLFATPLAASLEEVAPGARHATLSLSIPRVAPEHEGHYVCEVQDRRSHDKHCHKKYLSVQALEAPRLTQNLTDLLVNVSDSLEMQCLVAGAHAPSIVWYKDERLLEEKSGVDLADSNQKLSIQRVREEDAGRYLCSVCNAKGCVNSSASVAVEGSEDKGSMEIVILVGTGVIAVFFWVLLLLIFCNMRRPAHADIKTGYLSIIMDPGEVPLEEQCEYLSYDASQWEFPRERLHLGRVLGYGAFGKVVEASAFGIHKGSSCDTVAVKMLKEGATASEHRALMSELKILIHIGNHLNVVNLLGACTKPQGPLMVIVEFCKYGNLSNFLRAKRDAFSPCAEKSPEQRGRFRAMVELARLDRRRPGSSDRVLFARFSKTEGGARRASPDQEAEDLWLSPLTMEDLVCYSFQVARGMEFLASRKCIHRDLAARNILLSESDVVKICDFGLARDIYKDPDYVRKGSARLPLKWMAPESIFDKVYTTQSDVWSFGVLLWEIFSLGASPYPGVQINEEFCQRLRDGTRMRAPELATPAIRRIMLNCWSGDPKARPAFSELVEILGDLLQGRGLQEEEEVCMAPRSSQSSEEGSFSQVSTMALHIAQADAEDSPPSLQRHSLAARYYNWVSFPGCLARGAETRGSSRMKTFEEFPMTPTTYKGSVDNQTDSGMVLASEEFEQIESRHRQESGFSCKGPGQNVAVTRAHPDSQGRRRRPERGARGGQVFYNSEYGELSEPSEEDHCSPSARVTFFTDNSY
Sequence of Mitogen-activated protein kinase kinase kinase 11 (Q16584 whole entry): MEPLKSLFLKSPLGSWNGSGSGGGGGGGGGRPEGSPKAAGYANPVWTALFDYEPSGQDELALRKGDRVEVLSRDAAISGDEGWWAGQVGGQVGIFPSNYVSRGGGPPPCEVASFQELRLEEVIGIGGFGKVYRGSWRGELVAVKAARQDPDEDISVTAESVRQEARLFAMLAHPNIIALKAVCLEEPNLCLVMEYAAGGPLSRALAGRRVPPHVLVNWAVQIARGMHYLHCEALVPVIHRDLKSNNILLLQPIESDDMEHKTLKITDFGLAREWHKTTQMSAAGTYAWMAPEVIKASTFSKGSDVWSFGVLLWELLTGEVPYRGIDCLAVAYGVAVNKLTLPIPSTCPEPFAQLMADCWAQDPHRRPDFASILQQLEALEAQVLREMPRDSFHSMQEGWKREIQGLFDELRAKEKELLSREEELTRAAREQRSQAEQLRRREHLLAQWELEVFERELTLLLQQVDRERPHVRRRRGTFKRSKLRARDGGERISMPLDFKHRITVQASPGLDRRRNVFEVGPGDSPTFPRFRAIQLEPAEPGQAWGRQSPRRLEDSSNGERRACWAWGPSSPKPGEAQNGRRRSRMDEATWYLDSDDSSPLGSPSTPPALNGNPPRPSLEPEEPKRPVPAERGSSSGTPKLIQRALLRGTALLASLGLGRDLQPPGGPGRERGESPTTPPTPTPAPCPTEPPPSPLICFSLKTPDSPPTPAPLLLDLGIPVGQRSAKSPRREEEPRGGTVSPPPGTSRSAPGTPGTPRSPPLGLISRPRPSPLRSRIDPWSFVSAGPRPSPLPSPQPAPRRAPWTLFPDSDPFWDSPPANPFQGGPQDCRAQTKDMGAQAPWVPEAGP
Sequence of Vascular endothelial growth factor receptor 1 (P17948 whole entry): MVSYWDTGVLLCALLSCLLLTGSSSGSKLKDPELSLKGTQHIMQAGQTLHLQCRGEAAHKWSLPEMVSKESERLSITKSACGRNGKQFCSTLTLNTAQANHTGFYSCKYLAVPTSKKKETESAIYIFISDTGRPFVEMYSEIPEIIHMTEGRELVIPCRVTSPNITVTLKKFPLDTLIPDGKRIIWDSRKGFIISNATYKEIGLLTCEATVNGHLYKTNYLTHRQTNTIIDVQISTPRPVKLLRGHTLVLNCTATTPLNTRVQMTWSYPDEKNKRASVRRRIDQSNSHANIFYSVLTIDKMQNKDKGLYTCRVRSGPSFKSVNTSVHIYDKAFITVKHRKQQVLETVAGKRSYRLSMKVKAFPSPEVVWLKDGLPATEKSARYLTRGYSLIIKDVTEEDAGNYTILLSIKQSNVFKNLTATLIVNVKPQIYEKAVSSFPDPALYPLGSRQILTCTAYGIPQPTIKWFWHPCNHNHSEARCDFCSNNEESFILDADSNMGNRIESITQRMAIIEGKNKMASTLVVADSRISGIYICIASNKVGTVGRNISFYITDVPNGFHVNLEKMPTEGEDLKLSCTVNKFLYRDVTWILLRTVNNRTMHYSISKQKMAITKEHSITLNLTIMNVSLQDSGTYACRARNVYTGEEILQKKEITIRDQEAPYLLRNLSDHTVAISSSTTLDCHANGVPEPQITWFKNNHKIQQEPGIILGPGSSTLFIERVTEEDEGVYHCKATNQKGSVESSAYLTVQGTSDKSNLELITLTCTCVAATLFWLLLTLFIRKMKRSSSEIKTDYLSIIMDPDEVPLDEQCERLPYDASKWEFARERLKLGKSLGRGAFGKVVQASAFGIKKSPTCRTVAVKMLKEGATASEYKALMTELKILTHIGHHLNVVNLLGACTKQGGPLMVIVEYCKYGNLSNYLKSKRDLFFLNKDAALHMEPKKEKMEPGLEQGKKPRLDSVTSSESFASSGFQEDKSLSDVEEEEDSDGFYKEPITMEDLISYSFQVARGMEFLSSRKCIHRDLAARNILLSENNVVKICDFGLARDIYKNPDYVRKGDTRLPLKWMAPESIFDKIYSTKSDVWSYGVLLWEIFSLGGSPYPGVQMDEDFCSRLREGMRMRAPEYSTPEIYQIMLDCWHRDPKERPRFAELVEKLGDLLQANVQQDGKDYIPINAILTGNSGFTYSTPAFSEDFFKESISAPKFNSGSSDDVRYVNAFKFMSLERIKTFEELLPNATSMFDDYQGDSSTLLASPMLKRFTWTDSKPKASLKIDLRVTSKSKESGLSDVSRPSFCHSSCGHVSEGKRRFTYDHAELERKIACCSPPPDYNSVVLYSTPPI
Sequence of Poly [ADP-ribose] polymerase 2 (Q9UGN5 whole entry): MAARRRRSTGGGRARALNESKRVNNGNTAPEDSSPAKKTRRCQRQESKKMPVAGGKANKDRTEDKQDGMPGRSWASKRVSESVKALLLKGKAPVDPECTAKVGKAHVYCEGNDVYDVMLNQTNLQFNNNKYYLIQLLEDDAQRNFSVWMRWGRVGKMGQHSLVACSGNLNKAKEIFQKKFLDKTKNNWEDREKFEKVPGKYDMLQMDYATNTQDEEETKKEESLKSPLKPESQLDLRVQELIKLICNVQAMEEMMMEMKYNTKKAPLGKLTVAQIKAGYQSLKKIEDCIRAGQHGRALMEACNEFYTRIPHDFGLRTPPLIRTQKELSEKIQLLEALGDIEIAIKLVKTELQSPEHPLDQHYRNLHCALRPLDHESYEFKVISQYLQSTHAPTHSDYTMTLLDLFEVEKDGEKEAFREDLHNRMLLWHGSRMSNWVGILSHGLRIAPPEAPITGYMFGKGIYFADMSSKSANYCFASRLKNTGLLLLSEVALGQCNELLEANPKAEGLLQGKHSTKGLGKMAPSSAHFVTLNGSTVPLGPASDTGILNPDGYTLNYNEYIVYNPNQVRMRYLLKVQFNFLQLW

As to `Cc1ccc(Nc2nccc(N(C)c3ccc4c(C)n(C)nc4c3)n2)cc1-c1nc2c(C(N)=O)cccc2[nH]1`, the IC50 in series [1] stood at 166 nM; in series [2], 499 nM; in series [3] it was 299 nM; in series [4], 148 nM; in [5] it was 347 nM; in series [6], 689 nM. In series [7], this compound yielded a concentration for half-maximal inhibition (IC50) of 78.4 nM. The half-life is 1.2 h in [8] and 1 h in series [14]. Besides, the Cmax was 482 ng/mL in series [9] and 2430 ng/mL in series [15]. The results for the AUC(0-t) in series [10] and in series [16] were 815 ng·h/mL and 4900 ng·h/mL, respectively. The AUC(0-inf) in [11] stood at 821 ng·h/mL; in series [17], 4920 ng·h/mL. In series [12], the Vd amounted to 2.2 L/kg. Further, the clearance in [13] was found to be 20.9 mL/min/kg. In series [18], this compound displayed a bioavailability of 60.1%. Further, the Activity entry in series [19], in series [20], in series [21], in series [22], in series [23] and in series [24] was “Non-Toxic” each time.

As usually defined, the IC50 is the point on the concentration scale where inhibition reaches its midpoint. A low value points to greater potency. Usually half-life stands for the time in which the quantity being followed falls by half. The low end stands for rapid decline, the high end for slow decline. Broadly, the Cmax is the maximum level reached in the sampled fluid or tissue. The term AUC(0-t) denotes exposure summed from dosing to a finite time, without extrapolation to infinity. Broadly, the AUC(0-inf) is the area under the concentration-time curve extrapolated to infinity. Low values mean less exposure, high ones more exposure. As a reminder, the clearance is the volume of plasma or blood freed of the substance per unit of time. In general, bioavailability refers to dose-corrected exposure relative to a reference, in per cent. Higher therefore signals good availability.
